Columns and labels:
EGIDFPOO_00532 = tested on: T1, EGIDFPOO_00532; assay: nitrophenol release, absorbance; format: biochemical, Thermococcus sp. 2319x1E; details: pH 8.0, 100°C; refolding buffer with 2 M urea, 10% sucrose
T1 construct: N-terminal 6xHis-tag, pET-28b(+) NheI/XhoI, E. coli Rosetta; primers encode N-term MLVFPDSFL and C-term KYGLPEL

EGIDFPOO_00674 = tested on: T2, EGIDFPOO_00674; assay: nitrophenol release, absorbance; format: biochemical, Thermococcus sp. 2319x1E; details: pH 8.0 (50 mM Tris-HCl), 100°C
T2 construct: C-terminal 6xHis-tag, pET-28b(+) NcoI/EcoRI, E. coli Rosetta; Ni-IDA purified; primers encode N-term MGYQKFGYHFHA and C-term NGASIGPGF before HHHHHH; GH57 domain 52-300, predicted catalytic E153/D253

Km (EGIDFPOO_00532) | Km (EGIDFPOO_00674) | Compound
6.23 mM | – | O=[N+]([O-])c1ccccc1O[C@@H]1O[C@H](CO)[C@H](O)[C@H](O)[C@H]1O [ONPG]
– | 2.57 mM | CC(=O)Oc1ccc([N+](=O)[O-])cc1 [PNPA]
0.18 mM | – | O=[N+]([O-])c1ccc(O[C@@H]2O[C@H](CO)[C@@H](O)[C@H](O)[C@H]2O)cc1 [PNPG]
4.38 mM | – | O=[N+]([O-])c1ccc(O[C@@H]2OC[C@@H](O)[C@H](O)[C@H]2O)cc1 [PNPX]

Source: PMC8790579, “Activity-Based Protein Profiling for the Identification of Novel Carbohydrate-Active Enzymes Involved in Xylan Degradation in the Hyperthermophilic Euryarchaeon Thermococcus sp. Strain 2319x1E” (Frontiers in Microbiology, 2022)
